Assay results taken from patent publication US3941842A, “P,P'-Disubstituted α-trichloromethylbenzylanilines” (priority 1972, dated 1976).

test system: Phormia regina; assay: whole plant or invertebrate; details: Phormia regina, topical, read-out: Topical LD50, Phormia regina, Alone
Protocol: The compounds of the present invention were tested for insecticidal activity by standard methods, and compared with the insecticidal activities of DDT and symmetrical analogs of DDT, such methoxychlor. Toxicological methods for the determination of the topical LD50 values to adult female SNAIDM and RSP houseflies, Musca domestica L. and to Phormia regina, and LC50 values to Culex pipiens quinquefasciatus Say, and Anopheles albimanus Weid mosquitoes were described by Metcalf el al., 44 Bull. World Health Org. […] The methods for evaluation of metabolism by mouse liver homogenate and by female RSP housefly and salt-marsh caterpillar larvae Estigmene acrea Drury, were described by Kapoor et al., 18 J. Agr. […] The techniques for model eocsystem evluation were described by Metcalf et al., 5 J. Environ. Sci. Tech.
(§1) Since piperonyl butoxide serves to block the action of MFO, the synergized LD50 values express the intrinsic toxicity of the compounds. With the detoxifying action of MFO enzymes blocked, the intrinsic toxicity of the compounds can thus be measured.

Compound | LD50 [mg/kg]
Cc1ccc(NC(c2ccc(Cl)cc2)C(Cl)(Cl)Cl)cc1 (stereo not drawn) [Compound XVI] | 36.2
CCOc1ccc(C(Nc2ccc(OC)cc2)C(Cl)(Cl)Cl)cc1 (stereo not drawn) [XIII] | 22
CCOc1ccc(NC(c2ccc(Cl)cc2)C(Cl)(Cl)Cl)cc1 (stereo not drawn) [VIII] | 37.5
CCOc1ccc(NC(c2ccc(OC)cc2)C(Cl)(Cl)Cl)cc1 (stereo not drawn) [XIV] | 112

same assay, conditions: synergistic ratio: LD50 alone/LD50 synergized with piperonyl butoxide

Compound | SR, Phormia regina
Cc1ccc(NC(c2ccc(Cl)cc2)C(Cl)(Cl)Cl)cc1 (stereo not drawn) [Compound XVI] | 1.45
CCOc1ccc(C(Nc2ccc(OC)cc2)C(Cl)(Cl)Cl)cc1 (stereo not drawn) [XIII] | 1.8
CCOc1ccc(NC(c2ccc(Cl)cc2)C(Cl)(Cl)Cl)cc1 (stereo not drawn) [VIII] | 2.8
CCOc1ccc(NC(c2ccc(OC)cc2)C(Cl)(Cl)Cl)cc1 (stereo not drawn) [XIV] | 5.6

same assay, conditions: synergized with piperonyl butoxide; topical

Compound | Topical LD50, Phormia regina, with pb [μg per g]
Cc1ccc(NC(c2ccc(Cl)cc2)C(Cl)(Cl)Cl)cc1 (stereo not drawn) [Compound XVI] | 25
CCOc1ccc(C(Nc2ccc(OC)cc2)C(Cl)(Cl)Cl)cc1 (stereo not drawn) [XIII] | 12.5
CCOc1ccc(NC(c2ccc(Cl)cc2)C(Cl)(Cl)Cl)cc1 (stereo not drawn) [VIII] | 13.2
CCOc1ccc(NC(c2ccc(OC)cc2)C(Cl)(Cl)Cl)cc1 (stereo not drawn) [XIV] | 20.0

test system: not listed separately; assay: Model ecosystem: distribution, ecological magnification and Biodegradability Index; details: Culex (mosquito); 33 days; 5.0 mg 3H-ethoxyaniline to Sorghum
Excerpt: After the amounts of the various metabolites have been calculated and a determination is made as to which of the metabolites are to be designated as "polar" and which are to be designated as "non-polar", a Biodegradability Index (amount of polar metabolites/amount of nonpolar metabolites) may be calculated. Remembering that nonpolar compounds, such as DDT are readily soluble in the fatty tissues, but are not readily soluble in water based solutions, and that the cell fluid is essentially a water based solution, the lower the Biodegradability Index, the lower the amount of biodegradability of the compound. The higher the amount of polarity, the greater the likelihood that the polar compound will dissolve in water, a very polar compound, and be eliminated from the cell.
The environmental fate of any new pesticide is a factor of paramount importance in determining how and where it might be used. The behavior of ^3 H-α-trichloromethyl-p-ethoxybenzyl-p-ethoxyaniline has been studied by the model ecosystem technique following application of 5.0 mg. of labeled compound to Sorghum plants. A summary of
metabolites from the organisms in the model ecosystem after 33 days were
identified by cochromatography with standards of known constitution, by
appropriate chromogenic reagents, and by high-resolution mass
spectrometry. The data of Table IV indicate the O-dealkylation of
Food Chem. 1 (1972). Ethoxychlor was found in the snail to 58.6 ppm and in the fish to 0.92 ppm, along with its ethylene and the mono- and bis-phenols formed by O-dealkylation. The ecological magnification (E.M.) of ethoxychlor, defined as the ratio of the parent material in the fish to the concentration in the water, was 1500-fold as compared with an E.M. of only 0.7-fold for the ethoxyaniline.
Comparing the Biodegradability Indices (B.I.=total recovered polar metabolites/total recovered nonpolar metabolites) the values are 0.44 for ethoxychlor and 2.0 for ethoxyaniline.

Compound | Concentration of ethoxyaniline equivalents in Culex (mosquito) [ppm]
CCOc1ccc(C(=O)O)cc1 [C2 H5 OC6 H4 C(O)OH, p-ethoxybenzoic acid] | 0.06
CCOc1ccc(NC(c2ccc(O)cc2)C(Cl)(Cl)Cl)cc1 (stereo not drawn) [C2 H5 OC6 H4 NHCH(CCl3)C6 H4 OH, α-trichloromethyl-p-hydroxybenzyl-p-ethoxyaniline] | 0.13

same assay, conditions: Gambusia (fish); 33 days; 5.0 mg 3H-ethoxyaniline to Sorghum

Compound | Concentration of ethoxyaniline equivalents in Gambusia (fish) [ppm]
CCOc1ccc(C(=O)O)cc1 [C2 H5 OC6 H4 C(O)OH, p-ethoxybenzoic acid] | 0.03
CCOc1ccc(NC(c2ccc(O)cc2)C(Cl)(Cl)Cl)cc1 (stereo not drawn) [C2 H5 OC6 H4 NHCH(CCl3)C6 H4 OH, α-trichloromethyl-p-hydroxybenzyl-p-ethoxyaniline] | 0.08

same assay, conditions: H2O; 33 days; 5.0 mg 3H-ethoxyaniline to Sorghum

Compound | Concentration of ethoxyaniline equivalents in H2O [ppm]
CCOc1ccc(C(=O)O)cc1 [C2 H5 OC6 H4 C(O)OH, p-ethoxybenzoic acid] | 0.123
CCOc1ccc(NC(c2ccc(O)cc2)C(Cl)(Cl)Cl)cc1 (stereo not drawn) [C2 H5 OC6 H4 NHCH(CCl3)C6 H4 OH, α-trichloromethyl-p-hydroxybenzyl-p-ethoxyaniline] | 0.031

same assay, conditions: Oedogonium (algae); 33 days; 5.0 mg 3H-ethoxyaniline to Sorghum

Compound | Concentration of ethoxyaniline equivalents in Oedogonium (algae) [ppm]
CCOc1ccc(C(=O)O)cc1 [C2 H5 OC6 H4 C(O)OH, p-ethoxybenzoic acid] | 0.38
CCOc1ccc(NC(c2ccc(O)cc2)C(Cl)(Cl)Cl)cc1 (stereo not drawn) [C2 H5 OC6 H4 NHCH(CCl3)C6 H4 OH, α-trichloromethyl-p-hydroxybenzyl-p-ethoxyaniline] | 0.43

same assay, conditions: Physa (snail); 33 days; 5.0 mg 3H-ethoxyaniline to Sorghum

Compound | Concentration of ethoxyaniline equivalents in Physa (snail) [ppm]
CCOc1ccc(C(=O)O)cc1 [C2 H5 OC6 H4 C(O)OH, p-ethoxybenzoic acid] | 1.800
CCOc1ccc(NC(c2ccc(O)cc2)C(Cl)(Cl)Cl)cc1 (stereo not drawn) [C2 H5 OC6 H4 NHCH(CCl3)C6 H4 OH, α-trichloromethyl-p-hydroxybenzyl-p-ethoxyaniline] | 2.02

test system: Musca domestica Rsp; assay: Topical LD50 to adult female RSP houseflies; details: Musca domestica, topical, read-out: Topical LD50, Musca domestica Rsp, Alone
Protocol: (§2) The compounds of the present invention were tested for insecticidal activity by standard methods, and compared with the insecticidal activities of DDT and symmetrical analogs of DDT, such methoxychlor. Toxicological methods for the determination of the topical LD50 values to adult female SNAIDM and RSP houseflies, Musca domestica L. and to Phormia regina, and LC50 values to Culex pipiens quinquefasciatus Say, and Anopheles albimanus Weid mosquitoes were described by Metcalf el al., 44 Bull. World Health Org. 363 (1971). The methods for evaluation of metabolism by mouse liver homogenate and by female RSP housefly and salt-marsh caterpillar larvae Estigmene acrea Drury, were described by Kapoor et al., 18 J. Agr. Food Chem. 1145 (1970). The techniques for model eocsystem evluation were described by Metcalf et al., 5 J. Environ. Sci. Tech. 709 (1971).
as §1

Compound | LD50 [mg/kg]
Cc1ccc(NC(c2ccc(Cl)cc2)C(Cl)(Cl)Cl)cc1 (stereo not drawn) [Compound XVI] | 125
CCOc1ccc(C(Nc2ccc(OC)cc2)C(Cl)(Cl)Cl)cc1 (stereo not drawn) [XIII] | 41
CCOc1ccc(NC(c2ccc(Cl)cc2)C(Cl)(Cl)Cl)cc1 (stereo not drawn) [VIII] | 45
CCOc1ccc(NC(c2ccc(OC)cc2)C(Cl)(Cl)Cl)cc1 (stereo not drawn) [XIV] | 37

same assay, conditions: RSP strain; synergized with piperonyl butoxide; topical

Compound | Topical LD50, Musca domestica Rsp, with pb [μg per g]
Cc1ccc(NC(c2ccc(Cl)cc2)C(Cl)(Cl)Cl)cc1 (stereo not drawn) [Compound XVI] | 30
CCOc1ccc(C(Nc2ccc(OC)cc2)C(Cl)(Cl)Cl)cc1 (stereo not drawn) [XIII] | 12.5
CCOc1ccc(NC(c2ccc(Cl)cc2)C(Cl)(Cl)Cl)cc1 (stereo not drawn) [VIII] | 13.0
CCOc1ccc(NC(c2ccc(OC)cc2)C(Cl)(Cl)Cl)cc1 (stereo not drawn) [XIV] | 12.0

same assay, conditions: synergistic ratio: LD50 alone/LD50 synergized with piperonyl butoxide

Compound | SR, Musca domestica Rsp
Cc1ccc(NC(c2ccc(Cl)cc2)C(Cl)(Cl)Cl)cc1 (stereo not drawn) [Compound XVI] | 4.2
CCOc1ccc(C(Nc2ccc(OC)cc2)C(Cl)(Cl)Cl)cc1 (stereo not drawn) [XIII] | 3.3
CCOc1ccc(NC(c2ccc(Cl)cc2)C(Cl)(Cl)Cl)cc1 (stereo not drawn) [VIII] | 3.5
CCOc1ccc(NC(c2ccc(OC)cc2)C(Cl)(Cl)Cl)cc1 (stereo not drawn) [XIV] | 3.1

test system: Culex fatigans larvae; assay: LC50 to Culex fatigans larvae; format: in vivo, Culex pipiens quinquefasciatus Say; details: not given
Excerpt: (§3) World Health Org. 363 (1971). […] Food Chem. 1145 (1970). […] Sci. Tech. 709 (1971). The results are detailed in Table II. ##SPC1##

Compound | LC50 Culex fatigans larvae [ppm]
Cc1ccc(NC(c2ccc(Cl)cc2)C(Cl)(Cl)Cl)cc1 (stereo not drawn) [Compound XVI] | 0.18
CCOc1ccc(C(Nc2ccc(OC)cc2)C(Cl)(Cl)Cl)cc1 (stereo not drawn) [XIII] | 0.42
CCOc1ccc(NC(c2ccc(Cl)cc2)C(Cl)(Cl)Cl)cc1 (stereo not drawn) [VIII] | 0.22
CCOc1ccc(NC(c2ccc(OC)cc2)C(Cl)(Cl)Cl)cc1 (stereo not drawn) [XIV] | 0.34

test system: Musca domestica Snaidm; assay: Topical LD50 to adult female SNAIDM houseflies; details: Musca domestica, topical, read-out: Topical LD50, Musca domestica Snaidm, Alone
Protocol: as §2, §1

Compound | LD50 [mg/kg]
Cc1ccc(NC(c2ccc(Cl)cc2)C(Cl)(Cl)Cl)cc1 (stereo not drawn) [Compound XVI] | 65
CCOc1ccc(C(Nc2ccc(OC)cc2)C(Cl)(Cl)Cl)cc1 (stereo not drawn) [XIII] | 23.5
CCOc1ccc(NC(c2ccc(Cl)cc2)C(Cl)(Cl)Cl)cc1 (stereo not drawn) [VIII] | 19.5
CCOc1ccc(NC(c2ccc(OC)cc2)C(Cl)(Cl)Cl)cc1 (stereo not drawn) [XIV] | 30

same assay, conditions: SNAIDM strain; synergized with piperonyl butoxide; topical

Compound | Topical LD50, Musca domestica Snaidm, with pb [μg per g]
Cc1ccc(NC(c2ccc(Cl)cc2)C(Cl)(Cl)Cl)cc1 (stereo not drawn) [Compound XVI] | 16
CCOc1ccc(C(Nc2ccc(OC)cc2)C(Cl)(Cl)Cl)cc1 (stereo not drawn) [XIII] | 5.5
CCOc1ccc(NC(c2ccc(Cl)cc2)C(Cl)(Cl)Cl)cc1 (stereo not drawn) [VIII] | 4.1
CCOc1ccc(NC(c2ccc(OC)cc2)C(Cl)(Cl)Cl)cc1 (stereo not drawn) [XIV] | 3.9

same assay, conditions: synergistic ratio: LD50 alone/LD50 synergized with piperonyl butoxide

Compound | SR, Musca domestica Snaidm
Cc1ccc(NC(c2ccc(Cl)cc2)C(Cl)(Cl)Cl)cc1 (stereo not drawn) [Compound XVI] | 4.1
CCOc1ccc(C(Nc2ccc(OC)cc2)C(Cl)(Cl)Cl)cc1 (stereo not drawn) [XIII] | 4.2
CCOc1ccc(NC(c2ccc(Cl)cc2)C(Cl)(Cl)Cl)cc1 (stereo not drawn) [VIII] | 4.8
CCOc1ccc(NC(c2ccc(OC)cc2)C(Cl)(Cl)Cl)cc1 (stereo not drawn) [XIV] | 7.7

test system: Anopheles albimanus larvae; assay: LC50 to Anopheles albimanus larvae; format: in vivo, Anopheles albimanus Weid; details: not given
Excerpt: as §3

Compound | LC50 Anopheles albimanus larvae [ppm]
Cc1ccc(NC(c2ccc(Cl)cc2)C(Cl)(Cl)Cl)cc1 (stereo not drawn) [Compound XVI] | 0.14
CCOc1ccc(C(Nc2ccc(OC)cc2)C(Cl)(Cl)Cl)cc1 (stereo not drawn) [XIII] | 0.68
CCOc1ccc(NC(c2ccc(Cl)cc2)C(Cl)(Cl)Cl)cc1 (stereo not drawn) [VIII] | 0.26
CCOc1ccc(NC(c2ccc(OC)cc2)C(Cl)(Cl)Cl)cc1 (stereo not drawn) [XIV] | 1.0
